Measurements published in US20040220267A1, “Derivatives of pentacyclic nortriterpene quinone methides as compounds useful in the treatment of inflammatory, neurodegenerative, and neoplastic diseases” (priority 2003, published 2004).
Read-outs that look alike come from different tables or passages of the source.

Columns and labels:
nitric oxide production = conditions: cited from earlier work
IL-1β = conditions: cited from earlier work
TNF-α = conditions: cited from earlier work
inducible NO synthase = conditions: cited from earlier work
microglia = conditions: cited from earlier work
[1] = tested on: constitutive NO synthases; conditions: cited from earlier work
human leukemia HL-60 = conditions: cited from earlier work; for rank order of potency: apoptosis induction in HL-60 and topoisomerase II inhibition, Nagase et al. 2003
[2] = tested on: heat shock proteins (HSPs); conditions: cited from earlier work
Hsp70 = format: cell-based
protein aggregation = test: In vitro Huntington Aggregation Assay; format: biochemical
topoisomerase II = conditions: cited from earlier work
NF-κB activation = conditions: cited from earlier work
[3] = Cellular toxicity / cytotoxicity; format: cell-based

Compound	rank order of potency (human leukemia HL-60)	Hsp70 generation (Hsp70; Dose 0.1 uM)	Hsp70 generation (Hsp70; Dose 0.3 uM)	Hsp70 generation (Hsp70; Dose 0.5 uM)	Hsp70 generation (Hsp70; Dose 1.0 uM)	Hsp70 generation (Hsp70; Dose 2.0 uM)	Hsp70 generation (Hsp70; Dose 3.0 uM)	Hsp70 generation (Hsp70; Dose 6 uM)	Hsp70 generation (Hsp70; Dose 10 uM)	inhibition of protein aggregation in the in vitro Huntington Aggregation assay (protein aggregation)	also measured
N=C(N)NN [aminoguanidine]											IC50 (nitric oxide production): 16 µM
CC1=C(O)C(=O)C=C2C1=CC=C1[C@@]2(C)CC[C@@]2(C)[C@@H]3C[C@](C)(C(=O)O)CC[C@]3(C)CC[C@]12C [celastrol, reference compound]	celastrol>etoposide>dihydrocelastrol	.043	.046	.039	.423	15.0	4.54	.240	.034	potent inhibitor	IC50 (nitric oxide production): 0.23 µM; inhibition of production of IL-1β (IL-1β): inhibits; inhibition of production of TNF-α (TNF-α): inhibits; inhibition of expression of inducible NO synthase (inducible NO synthase): inhibits; inhibition of microglial activation (microglia): inhibits; inhibition of constitutive NO synthases [1]: does not inhibit; concentration inducing apoptosis (human leukemia HL-60; human leukemia HL-60 model): sub-micromolar concentrations; concentration enhancing cellular HSP production [2]: sub-micromolar concentrations; concentration inhibiting topoisomerase II (topoisomerase II): sub-micromolar concentrations; IC50 (NF-κB activation): 270 nM
Cc1c(O)c(O)cc2c1CC=C1[C@@]2(C)CC[C@@]2(C)[C@@H]3C[C@](C)(C(=O)O)CC[C@]3(C)CC[C@]12C [dihydrocelastrol]	celastrol>etoposide>dihydrocelastrol	.051	.036	.033	.052	.049	.117	3.37	.044	potent	activity in inducing apoptosis compared with celastrol and etoposide (human leukemia HL-60; human leukemia HL-60 model): weaker activity; activity in inhibiting topoisomerase II compared with celastrol and etoposide (topoisomerase II): weaker activity
COC(=O)[C@]1(C)CC[C@]2(C)CC[C@]3(C)C4=CCc5c(cc(OC(C)=O)c(OC(C)=O)c5C)[C@]4(C)CC[C@@]3(C)[C@@H]2C1 [dihydropristimerin diacetate]		.038	.048	.042	.049	.047	.049	.246	.273		
COc1cc([C@@H]2c3cc4c(cc3[C@@H](O[C@@H]3O[C@@H]5CO[C@@H](C)O[C@H]5[C@H](O)[C@H]3O)[C@H]3COC(=O)[C@H]23)OCO4)cc(OC)c1O [etoposide]	celastrol>etoposide>dihydrocelastrol										
COC(=O)[C@]1(C)CC[C@]2(C)CC[C@]3(C)C4=CC=C5C(=CC(=O)C(O)=C5C)[C@]4(C)CC[C@@]3(C)[C@@H]2C1 [pristimerin, reference compound]		.30	.056	.331	2.84	.094	.035	.033	1.25		
dihydrocelastrol diacetate		.041	.039	.041	.071	12.3	2.61	.040	.096	potent	cytotoxicity compared with celastrol [3]: reduced cytotoxicity; potency compared with celastrol (Hsp70): at least equivalent to celastrol in potency
dihydropristimerin		.050	.039	.037	.043	.042	.045	.102	.034	potent	
